# From article PMC3056285 (Bioorganic & medicinal chemistry, 2011)
# Assays:
# [1] = Biodistribution of [^11C]MP-10 in rats; assay type: in vivo, Sprague-Dawley rats; settings: male rats, tail vein injection
# PDE10A = assay: MicroPET imaging studies in rhesus monkeys; assay type: in vivo; settings: male rhesus monkeys
# [2] = In vivo metabolite analysis in rat brain; parameters: species or system Sprague-Dawley rats; settings: HPLC radioactivity
# [3] = In vivo metabolite analysis in rat plasma; parameters: species or system Sprague-Dawley rats; settings: HPLC radioactivity
# [4] = 2 min post injection of [^11C]MP-10
# [5] = 20 min post injection of [^11C]MP-10
# [6] = 40 min post injection of [^11C]MP-10
# [7] = 60 min post injection of [^11C]MP-10
smiles,measurement,setting,value
"[11CH3]n1cc(-c2ccncc2)c(-c2ccc(OCc3ccc4ccccc4n3)cc2)n1 [[^11C]MP-10, 2-((4-(1-[^11C]methyl-4-(pyridin-4-yl)-1H-pyrazol-3-yl)phenoxy)methyl)-quinoline]",Biodistribution Blood,[1]; 5 min,0.123 ± 0.033 ID%/gram
same,Biodistribution Cerebellum,[1]; 5 min,0.133 ± 0.023 ID%/gram
same,Biodistribution Cortex,[1]; 5 min,0.133 ± 0.025 ID%/gram
same,Biodistribution Fat,[1]; 5 min,0.124 ± 0.059 ID%/gram
same,Biodistribution Heart,[1]; 5 min,0.264 ± 0.080 ID%/gram
same,Biodistribution Hippocampus,[1]; 5 min,0.169 ± 0.049 ID%/gram
same,Biodistribution Liver,[1]; 5 min,2.766 ± 0.350 ID%/gram
same,Biodistribution Lung,[1]; 5 min,0.317 ± 0.037 ID%/gram
same,Biodistribution Muscle,[1]; 5 min,0.093 ± 0.021 ID%/gram
same,Biodistribution Striatum,[1]; 5 min,0.300 ± 0.094 ID%/gram
same,Biodistribution Testes,[1]; 5 min,0.160 ± 0.048 ID%/gram
same,Biodistribution Total brain,[1]; 5 min,0.162 ± 0.025 ID%/gram
same,Biodistribution Blood,[1]; 30 min,0.065 ± 0.016 ID%/gram
same,Biodistribution Cerebellum,[1]; 30 min,0.036 ± 0.003 ID%/gram
same,Biodistribution Cortex,[1]; 30 min,0.044 ± 0.009 ID%/gram
same,Biodistribution Fat,[1]; 30 min,0.075 ± 0.020 ID%/gram
same,Biodistribution Heart,[1]; 30 min,0.102 ± 0.041 ID%/gram
same,Biodistribution Hippocampus,[1]; 30 min,0.050 ± 0.010 ID%/gram
same,Biodistribution Kidney,[1]; 30 min,0.366 ± 0.075 ID%/gram
same,Biodistribution Liver,[1]; 30 min,3.395 ± 0.448 ID%/gram
same,Biodistribution Lung,[1]; 30 min,0.155 ± 0.053 ID%/gram
same,Biodistribution Muscle,[1]; 30 min,0.059 ± 0.010 ID%/gram
same,Biodistribution Striatum,[1]; 30 min,0.236 ± 0.035 ID%/gram
same,Biodistribution Testes,[1]; 30 min,0.098 ± 0.006 ID%/gram
same,Biodistribution Total brain,[1]; 30 min,0.066 ± 0.008 ID%/gram
same,Biodistribution Blood,[1]; 60 min,0.047 ± 0.012 ID%/gram
same,Biodistribution Cerebellum,[1]; 60 min,0.035 ± 0.003 ID%/gram
same,Biodistribution Cortex,[1]; 60 min,0.044 ± 0.014 ID%/gram
same,Biodistribution Fat,[1]; 60 min,0.100 ± 0.013 ID%/gram
same,Biodistribution Heart,[1]; 60 min,0.068 ± 0.023 ID%/gram
same,Biodistribution Hippocampus,[1]; 60 min,0.051 ± 0.009 ID%/gram
same,Biodistribution Kidney,[1]; 60 min,0.314 ± 0.060 ID%/gram
same,Biodistribution Liver,[1]; 60 min,3.364 ± 0.613 ID%/gram
same,Biodistribution Lung,[1]; 60 min,0.090 ± 0.012 ID%/gram
same,Biodistribution Muscle,[1]; 60 min,0.039 ± 0.011 ID%/gram
same,Biodistribution Striatum,[1]; 60 min,0.164 ± 0.036 ID%/gram
same,Biodistribution Testes,[1]; 60 min,0.068 ± 0.021 ID%/gram
same,Biodistribution Total brain,[1]; 60 min,0.056 ± 0.006 ID%/gram
same,blood brain barrier penetration,PDE10A,can readily penetrate the blood brain barrier
"[11CH3]n1cc(-c2ccncc2)c(-c2ccc(O)cc2)n1 [metabolite #1, 4-(1-[^11C]methyl-4-(pyridin-4-yl)-1H-pyrazol-3-yl)phenol]","% Peak #1, Brain Tissue",[2]; [4],1.03%
same,"% Peak #1, Brain Tissue",[2]; [5],3.45%
same,"% Peak #1, Brain Tissue",[2]; [6],11.47%
same,"% Peak #1, Brain Tissue",[2]; [7],15.87%
same,"% Peak #1, Plasma",[3]; [4],1.23%
same,"% Peak #1, Plasma",[3]; [5],19.13%
same,"% Peak #1, Plasma",[3]; [6],35.19%
same,"% Peak #1, Plasma",[3]; [7],40.72%
